Target: T1, SARS-CoV-2 NSP3 Mac1 (Severe acute respiratory syndrome coronavirus 2, UniProt P0DTD1)
Type: binding
Set-up: contains a conserved macrodomain enzyme (Mac1)
Details: maximal thermal upshift vs DMSO control
Method: DSF and associated compound handling was performed as described ([12]), with 5 µM dye “Fluorescent Yellow” (Jacquard iDye Cat #JID1405) used in place of SYPRO Orange. Compounds were tested in triplicate, at seven concentrations in two-fold serial dilutions, at a top concentration of either 1,000 or 100 μM. To minimize experimental noise arising from plate location-based effects on Tma, all concentrations and replicates for each compound were tested within a single region of the microtiter plates, including a DMSO-only control from which ΔTmas were calculated for that compound. […] For each compound, to determine statistical significance of the dose responsive thermal shift, the Spearman’s coefficient was calculated between compound concentration and ΔTma.

SMILES | DSF max dTma [°C]
COC(=O)CC1CN(c2ncnc3[nH]ccc23)c2ccccc21 (centres unmarked) [Z4911] | 0.79
Nc1cc(-c2noc(CCn3cccn3)n2)ncn1 [Z5086] | 1.48
CC1c2ccc(F)cc2CCN1C(=O)c1cccc(O)c1 (centres unmarked) [Z5167] | 0
Cc1nc(Cc2noc(Cc3ccc4[nH]ncc4c3)n2)no1 [Z5262] | 0.45
Fc1ccc(F)c(Sc2ncnc3[nH]ccc23)c1 [Z5289] | 1.24
Cc1csc(=Nc2ccccc2)n1Cc1nnc2n1CCNC2=O [Z5356] | 0.51
O=C(c1c(F)ccc(O)c1F)N1CCC(Oc2cccc(F)c2)C1 (centres unmarked) [Z5547] | 0.07
CC(c1ccc(Cl)c(Cl)c1)S(=O)(=O)Cc1cn[nH]c1 (centres unmarked) [Z5728] | 0
Nc1ncnc2c1ncn2CCCc1ccsc1 [Z5972] | 0.51
Cc1ccc(-c2noc(C3CC(=O)N(c4cn[nH]c4)C3)n2)cc1 (centres unmarked) [Z6019] | 0.27
CNc1cc(-c2noc(CN3CCCC3=O)n2)ncn1 [Z6028] | 0.33
N#Cc1cccc(-n2ccc(C(=O)OCc3cccnc3)n2)c1 [Z6395] | 0.18
COc1ccc(-c2nnc(NC(=O)Cc3ncccc3F)s2)cc1 [Z6468] | 0.58
Cc1nc(S(=O)(=O)NCc2ccc(-c3ccncc3)cc2)cn1C [Z7041] | 0.35
Clc1cc2c(N3CCCC(c4nnc[nH]4)C3)ncnc2[nH]1 (centres unmarked) [Z7156] | 0.86
Cc1cc(C)nc(CSc2nnc3c(=O)[nH]c4ccccc4n23)c1 [Z7570] | 0.36
CN(Cc1nnc2c(=O)[nH]ccn12)c1nccc(C(F)(F)F)n1 [Z7665] | 0.55
CN(Cc1nnc2c(=O)[nH]ccn12)c1cc(Cl)nc(C2CC2)n1 [Z7766] | 0.14
CC1CCc2n[nH]cc2C1C(=O)N(C)OCc1ccccc1 (centres unmarked) [Z8074] | 0.54
O=c1[nH]nc(C2CCCN(c3ncnc4[nH]c(Cl)cc34)C2)o1 (centres unmarked) [Z8387] | 1.01
O=C1CSc2cc(C(=O)OC3c4ccccc4CC3F)ccc2N1 (centres unmarked) [Z8554] | 0.13
O=C(Nc1cccnc1)Nc1nc2ccccc2c(=O)[nH]1 [Z8593] | 0
O=C(NCc1nc2ccccc2c(=O)[nH]1)Nc1cccnc1 [Z8598] | 0.22
O=C(Nc1cccnc1)Nc1ccc2ccccc2n1 [Z8614] | 0.06
Cc1n[nH]c2ncc(CN3CC(C)Oc4c(F)cccc43)cc12 (centres unmarked) [Z8637] | 0.16
CS(=O)(=O)C1CCCCN(c2ncnc3[nH]c4ccccc4c23)C1 (centres unmarked) [Z8648] | 0.24
Clc1cc2c(N3CCCC(c4cccnc4)C3)ncnc2[nH]1 (centres unmarked) [Z8680] | 0.25

Target: T1, SARS-CoV-2 NSP3 Mac1
Type: binding
Details: PanDDA 1-BDC (background density correction) of the event; crystal soak 100 mM; PanDDA run dmso_34

SMILES | 1-BDC
O=C1CCCN1CCSc1ncnc2[nH]cnc12 [Compound Z9920] | 0.21

Same assay, conditions: PanDDA 1-BDC of the event; compound stock 100 mM, Echo dispense volume 40 nl

SMILES | 1-BDC
O=C(O)CC1CN(c2ncnc3[nH]c4ccccc4c23)CCO1 (centres unmarked) [Compound Z9596] | 0.06

Same assay, conditions: PanDDA 1-BDC of the event; compound stock 100 mM, Echo dispense volume 80 nl

SMILES | 1-BDC
COC(=O)C1(CO)CCN(c2ncnc3[nH]c4cc(F)ccc4c23)C1 (centres unmarked) [Compound Z9556] | 0.1
O=C(O)CC1CN(c2ncnc3[nH]c4ccccc4c23)CCO1 (centres unmarked) [Compound Z9596] | 0.09
O=C(O)[C@@H]1[C@@H]2CCN(c3ncnc4[nH]c5cc(F)ccc5c34)C[C@@H]21 [LL114_0037] | 0.17
OCC1CN(c2ncnc3[nH]c4cc(F)ccc4c23)CC2(CCC2)O1 (centres unmarked) [LL123_0025] | 0.1

Same assay, conditions: PanDDA event map 1-BDC; crystal soak, Compound_concentration 100 mM; PanDDA run dmso_34 or nohits_35 per dataset

SMILES | 1-BDC
O=C(O)[C@@H]1[C@@H]2CCN(c3ncnc4[nH]c5cc(F)ccc5c34)C[C@@H]21 [LL114_0037] | 0.17
OCC1CN(c2ncnc3[nH]c4cc(F)ccc4c23)CC2(CCC2)O1 (centres unmarked) [LL123_0025] | 0.09
FC1(F)CCCC(Nc2ncnc3[nH]ccc23)C1 (centres unmarked) [SRH-0014] | 0.09

Same assay, conditions: PanDDA event map, 1 minus background density correction; crystal soaking of Mac1

SMILES | 1-BDC (PanDDA) | 1-BDC
COC(=O)C1(CO)CCN(c2ncnc3[nH]c4cc(F)ccc4c23)C1 (centres unmarked) [Compound Z9556] | 0.1 | 
O=C(O)CC1CN(c2ncnc3[nH]c4ccccc4c23)CCO1 (centres unmarked) [Compound Z9596] | 0.06 | 
O=C1CCCN1CCSc1ncnc2[nH]cnc12 [Compound Z9920] |  | 0.21
O=C(O)[C@@H]1[C@@H]2CCN(c3ncnc4[nH]c5cc(F)ccc5c34)C[C@@H]21 [LL114_0037] | 0.17 | 
OCC1CN(c2ncnc3[nH]c4cc(F)ccc4c23)CC2(CCC2)O1 (centres unmarked) [LL123_0025] | 0.07 | 

Same assay, conditions: PanDDA event map; crystal soak, Compound_concentration 100 mM, Echo_dispense_volume 40 nl

SMILES | 1-BDC
OCC1CN(c2ncnc3[nH]c4cc(F)ccc4c23)CC2(CCC2)O1 (centres unmarked) [LL123_0025] | 0.07

Same assay, conditions: crystal soak, Compound_concentration 100 mM, Echo dispense 40 nl; PanDDA run dmso_34 or nohits_35 per dataset

SMILES | PanDDA hit?
O=C(O)[C@@H]1[C@@H]2CCN(c3ncnc4[nH]c5cc(F)ccc5c34)C[C@@H]21 [LL114_0037] | TRUE
OCC1CN(c2ncnc3[nH]c4cc(F)ccc4c23)CC2(CCC2)O1 (centres unmarked) [LL123_0025] | TRUE
FC1(F)CCCC(Nc2ncnc3[nH]ccc23)C1 (centres unmarked) [SRH-0014] | TRUE

Same assay, conditions: crystal soak, Compound_concentration 100 mM, Echo_dispense_volume 40 nl; PanDDA run (background map) dmso_34, nohits_35 or nohits_62

SMILES | PanDDA hit?
OCC1CN(c2ncnc3[nH]c4cc(F)ccc4c23)CC2(CCC2)O1 (centres unmarked) [LL123_0025] | TRUE

Same assay, conditions: crystal soak, compound concentration 100 mM; PanDDA run dmso_34; series docking_lead-like_1

SMILES | PanDDA hit?
O=C1CCCN1CCSc1ncnc2[nH]cnc12 [Compound Z9920] | TRUE

Same assay, conditions: crystal soak, compound stock 100 mM, Echo dispense volume 40 nl

SMILES | PanDDA hit?
O=C(O)CC1CN(c2ncnc3[nH]c4ccccc4c23)CCO1 (centres unmarked) [Compound Z9596] | TRUE

Same assay, conditions: crystal soak, compound stock 100 mM, Echo dispense volume 80 nl

SMILES | PanDDA hit?
COC(=O)C1(CO)CCN(c2ncnc3[nH]c4cc(F)ccc4c23)C1 (centres unmarked) [Compound Z9556] | TRUE
O=C(O)CC1CN(c2ncnc3[nH]c4ccccc4c23)CCO1 (centres unmarked) [Compound Z9596] | TRUE
O=C(O)[C@@H]1[C@@H]2CCN(c3ncnc4[nH]c5cc(F)ccc5c34)C[C@@H]21 [LL114_0037] | TRUE
OCC1CN(c2ncnc3[nH]c4cc(F)ccc4c23)CC2(CCC2)O1 (centres unmarked) [LL123_0025] | TRUE

Same assay, conditions: ligand modeled in structure; compound stock 100 mM, Echo dispense volume 40 nl

SMILES | Modeled?
O=C(O)CC1CN(c2ncnc3[nH]c4ccccc4c23)CCO1 (centres unmarked) [Compound Z9596] | TRUE

Same assay, conditions: ligand modeled in structure; compound stock 100 mM, Echo dispense volume 80 nl

SMILES | Modeled?
COC(=O)C1(CO)CCN(c2ncnc3[nH]c4cc(F)ccc4c23)C1 (centres unmarked) [Compound Z9556] | TRUE
O=C(O)[C@@H]1[C@@H]2CCN(c3ncnc4[nH]c5cc(F)ccc5c34)C[C@@H]21 [LL114_0037] | TRUE

Same assay, conditions: ligand modeled in the crystal structure; crystal soak 100 mM; PanDDA run dmso_34

SMILES | Modeled?
O=C1CCCN1CCSc1ncnc2[nH]cnc12 [Compound Z9920] | TRUE

Same assay, conditions: ligand modeled; crystal soak, Compound_concentration 100 mM, Echo_dispense_volume 40 nl

SMILES | Modeled?
OCC1CN(c2ncnc3[nH]c4cc(F)ccc4c23)CC2(CCC2)O1 (centres unmarked) [LL123_0025] | TRUE

Same assay, conditions: ligand occupancy after refinement (phenix.refine); crystal soaking of Mac1

SMILES | Refined occupancy
COC(=O)C1(CO)CCN(c2ncnc3[nH]c4cc(F)ccc4c23)C1 (centres unmarked) [Compound Z9556] | 20
O=C(O)CC1CN(c2ncnc3[nH]c4ccccc4c23)CCO1 (centres unmarked) [Compound Z9596] | 12
O=C1CCCN1CCSc1ncnc2[nH]cnc12 [Compound Z9920] | 42
O=C(O)[C@@H]1[C@@H]2CCN(c3ncnc4[nH]c5cc(F)ccc5c34)C[C@@H]21 [LL114_0037] | 34
OCC1CN(c2ncnc3[nH]c4cc(F)ccc4c23)CC2(CCC2)O1 (centres unmarked) [LL123_0025] | 14

Same assay, conditions: true hit = binding in crystallographic soaking or the HTRF-based binding assay

SMILES | HIT*
OCC1CN(c2ncnc3[nH]c4cc(F)ccc4c23)CC2(CCC2)O1 (centres unmarked) [LL123_0025] | Y
Nc1ncc(S(=O)(=O)N2CC(F)(F)C[C@H]2C(=O)O)cn1 [Z1314] | Y
O=C(NC1c2cccc(O)c2CC1C(=O)O)c1ccc(Nc2cccnc2)cc1 (centres unmarked) [Z8539_0018] | Y

From paper PMC9926234, “Iterative computational design and crystallographic screening identifies potent inhibitors targeting the Nsp3 macrodomain of SARS-CoV-2” (Proceedings of the National Academy of Sciences of the …, 2023)
